Results: ChEMBL document CHEMBL5665443, “Enzyme Inhibitor Single Concentration assay results for EUbOPEN Chemogenomics Library” (2024)
“And” between values parts separate entries of the source, which are not always exact repeats. Identical values can stand only once.

Assays:
[1] = target: T1, Endonuclease III-like protein 1 (Homo sapiens) (UniProt P78549); settings: Hit No;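 further: enzyme assay tracking NTHL1 cutting and release of a quenched double-stranded DNA oligo substrate, read as fluorescence at 594 nm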
T1 sequence (whole entry): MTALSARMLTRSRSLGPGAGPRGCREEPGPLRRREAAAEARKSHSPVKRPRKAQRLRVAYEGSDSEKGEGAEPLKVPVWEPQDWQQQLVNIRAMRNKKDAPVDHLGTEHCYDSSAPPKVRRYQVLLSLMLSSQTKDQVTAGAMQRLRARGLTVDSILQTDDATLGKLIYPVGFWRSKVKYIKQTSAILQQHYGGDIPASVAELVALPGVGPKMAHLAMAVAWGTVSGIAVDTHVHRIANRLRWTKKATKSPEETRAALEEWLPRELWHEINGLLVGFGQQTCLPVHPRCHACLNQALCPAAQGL
Description: Inhibition of NTHL1 by quantifying inhibition of NTHL1-mediated cleavage and dissociation of quenched duplex DNA oligonucleotides, measured as fluorescence at 594 nm.

[2] = target: N-glycosylase/DNA lyase (Homo sapiens) (UniProt O15527);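 further: OGG1 cleavage of a quenched duplex DNA oligonucleotide, coupled to APE1 for strand incision, read as fluorescence at 594 nm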
Sequence of N-glycosylase/DNA lyase (Homo sapiens) (O15527 whole entry): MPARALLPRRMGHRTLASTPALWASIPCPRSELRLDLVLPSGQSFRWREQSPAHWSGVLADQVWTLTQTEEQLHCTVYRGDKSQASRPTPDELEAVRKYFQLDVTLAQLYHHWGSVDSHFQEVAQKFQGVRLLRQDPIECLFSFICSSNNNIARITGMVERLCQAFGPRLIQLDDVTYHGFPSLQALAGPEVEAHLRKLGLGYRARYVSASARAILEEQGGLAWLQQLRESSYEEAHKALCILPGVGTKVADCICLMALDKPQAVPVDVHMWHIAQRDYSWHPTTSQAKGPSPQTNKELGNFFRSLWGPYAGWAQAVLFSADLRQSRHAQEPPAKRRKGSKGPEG
Description: Inhibition of OGG1 by quantifying inhibition of OGG1-mediated cleavage and dissociation of quenched duplex DNA oligonucleotides, measured as fluorescence at 594 nm. To generate a functional strand incision and increase turn-over this assay is coupled to APE1.

[3] = target: Endonuclease 8-like 1 (Homo sapiens) (UniProt Q96FI4); settings: Hit No;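 further: fluorescence at 594 nm from quenched duplex DNA oligonucleotides released by NEIL1 cleavage and strand separation, reported as reduction of this enzyme activity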
Sequence of Endonuclease 8-like 1 (Homo sapiens) (Q96FI4 whole entry): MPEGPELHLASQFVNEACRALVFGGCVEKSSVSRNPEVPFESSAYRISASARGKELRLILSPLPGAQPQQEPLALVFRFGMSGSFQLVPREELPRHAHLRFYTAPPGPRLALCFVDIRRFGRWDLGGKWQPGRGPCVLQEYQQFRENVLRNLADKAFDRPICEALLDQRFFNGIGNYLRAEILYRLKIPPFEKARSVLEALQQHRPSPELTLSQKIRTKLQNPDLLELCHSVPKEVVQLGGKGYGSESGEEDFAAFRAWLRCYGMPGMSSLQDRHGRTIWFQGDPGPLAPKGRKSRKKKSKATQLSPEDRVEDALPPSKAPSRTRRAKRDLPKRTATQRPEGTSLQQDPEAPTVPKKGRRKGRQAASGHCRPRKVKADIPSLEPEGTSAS
Description: Inhibition of NEIL1 by quantifying inhibition of NEIL1-mediated cleavage and dissociation of quenched duplex DNA oligonucleotides, measured as fluorescence at 594 nm.

[4] = target: T2, Single-strand selective monofunctional uracil DNA glycosylase (Homo sapiens) (UniProt Q53HV7); settings: Hit No;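 further: enzymatic SMUG1 assay coupled with APE1, reading fluorescence at 594 nm released when a quenched double-stranded DNA oligonucleotide substrate is cleaved and separated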
T2 sequence (whole entry): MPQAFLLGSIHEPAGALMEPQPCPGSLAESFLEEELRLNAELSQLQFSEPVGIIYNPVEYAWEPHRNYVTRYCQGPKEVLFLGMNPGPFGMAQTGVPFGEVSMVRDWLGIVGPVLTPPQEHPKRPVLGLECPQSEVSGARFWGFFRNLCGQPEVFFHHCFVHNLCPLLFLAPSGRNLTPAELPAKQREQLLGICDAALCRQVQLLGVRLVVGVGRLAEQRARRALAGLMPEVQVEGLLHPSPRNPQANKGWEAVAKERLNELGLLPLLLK
Description: Inhibition of SMUG1 by quantifying inhibition of SMUG1-mediated cleavage and dissociation of quenched duplex DNA oligonucleotides, measured as fluorescence at 594 nm. To generate a functional strand incision and increase turn-over this assay is coupled to APE1.

[5] = target: T3, Adenine DNA glycosylase (Homo sapiens) (UniProt Q9UIF7); settings: Hit No;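 further: human MUTYH activity read as 594 nm fluorescence from cleavage and release of a quenched DNA duplex, coupled with APE1 for strand incision, lower signal meaning inhibition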
T3 sequence (whole entry): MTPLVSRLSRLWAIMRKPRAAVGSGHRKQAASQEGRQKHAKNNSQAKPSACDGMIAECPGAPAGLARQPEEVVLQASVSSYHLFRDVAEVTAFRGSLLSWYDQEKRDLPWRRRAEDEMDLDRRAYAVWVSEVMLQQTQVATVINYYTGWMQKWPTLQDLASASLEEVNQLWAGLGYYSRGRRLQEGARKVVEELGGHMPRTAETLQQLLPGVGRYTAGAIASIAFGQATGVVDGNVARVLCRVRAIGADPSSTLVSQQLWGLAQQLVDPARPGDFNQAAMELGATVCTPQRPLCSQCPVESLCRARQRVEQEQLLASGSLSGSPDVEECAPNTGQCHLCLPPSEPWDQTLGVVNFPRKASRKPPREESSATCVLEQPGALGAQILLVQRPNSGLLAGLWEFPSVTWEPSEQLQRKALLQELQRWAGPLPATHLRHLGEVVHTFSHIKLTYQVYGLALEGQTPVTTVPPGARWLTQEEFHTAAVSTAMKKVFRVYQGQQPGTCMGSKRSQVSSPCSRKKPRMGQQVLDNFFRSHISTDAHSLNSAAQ
Description: Inhibition of MUTYH by quantifying inhibition of MUTYH-mediated cleavage and dissociation of quenched duplex DNA oligonucleotides, measured as fluorescence at 594 nm. To generate a functional strand incision and increase turn-over this assay is coupled to APE1.

[6] = target: G/T mismatch-specific thymine DNA glycosylase (Homo sapiens) (UniProt Q13569);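 further: human TDG cleavage of quenched duplex DNA oligonucleotides coupled to APE1, strand release read as fluorescence at 594 nm, inhibition of TDG activity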
Sequence of G/T mismatch-specific thymine DNA glycosylase (Homo sapiens) (Q13569 whole entry): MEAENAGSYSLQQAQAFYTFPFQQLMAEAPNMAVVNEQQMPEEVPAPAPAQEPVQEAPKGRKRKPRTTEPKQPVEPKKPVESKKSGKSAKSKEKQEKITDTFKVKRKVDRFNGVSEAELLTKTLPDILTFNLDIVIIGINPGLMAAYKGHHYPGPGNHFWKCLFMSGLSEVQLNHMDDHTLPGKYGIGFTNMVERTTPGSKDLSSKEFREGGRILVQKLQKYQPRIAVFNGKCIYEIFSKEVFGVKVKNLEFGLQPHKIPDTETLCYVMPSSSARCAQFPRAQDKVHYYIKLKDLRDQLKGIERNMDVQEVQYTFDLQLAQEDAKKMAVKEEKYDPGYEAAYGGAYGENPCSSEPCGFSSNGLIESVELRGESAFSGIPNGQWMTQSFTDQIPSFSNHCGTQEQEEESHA
Description: Inhibition of TDG by quantifying inhibition of TDG-mediated cleavage and dissociation of quenched duplex DNA oligonucleotides, measured as fluorescence at 594 nm. To generate a functional strand incision and increase turn-over this assay is coupled to APE1.

[7] = target: DNA-3-methyladenine glycosylase (Homo sapiens) (UniProt P29372); settings: Hit No;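 further: enzyme assay where MPG cuts a quenched duplex DNA oligonucleotide probe, paired with APE1 for strand incision and turnover, read as fluorescence at 594 nm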
Sequence of DNA-3-methyladenine glycosylase (Homo sapiens) (P29372 whole entry): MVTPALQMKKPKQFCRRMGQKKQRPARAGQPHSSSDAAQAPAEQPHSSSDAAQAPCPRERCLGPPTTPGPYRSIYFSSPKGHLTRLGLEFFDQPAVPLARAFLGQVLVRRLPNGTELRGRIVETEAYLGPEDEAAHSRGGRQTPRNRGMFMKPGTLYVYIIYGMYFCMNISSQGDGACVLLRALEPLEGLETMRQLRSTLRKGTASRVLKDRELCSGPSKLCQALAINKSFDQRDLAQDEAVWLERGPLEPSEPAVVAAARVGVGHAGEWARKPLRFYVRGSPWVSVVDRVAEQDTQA
Description: Inhibition of MPG by quantifying inhibition of MPG-mediated cleavage and dissociation of quenched duplex DNA oligonucleotides, measured as fluorescence at 594 nm. To generate a functional strand incision and increase turn-over this assay is coupled to APE1.

[8] = target: T4, Endonuclease 8-like 2 (Homo sapiens) (UniProt Q969S2); settings: Hit No;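 further: fluorescence at 594 nm reports NEIL2 cutting and release of a quenched double-stranded DNA oligo substrate, reduced signal read as inhibition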
T4 sequence (whole entry): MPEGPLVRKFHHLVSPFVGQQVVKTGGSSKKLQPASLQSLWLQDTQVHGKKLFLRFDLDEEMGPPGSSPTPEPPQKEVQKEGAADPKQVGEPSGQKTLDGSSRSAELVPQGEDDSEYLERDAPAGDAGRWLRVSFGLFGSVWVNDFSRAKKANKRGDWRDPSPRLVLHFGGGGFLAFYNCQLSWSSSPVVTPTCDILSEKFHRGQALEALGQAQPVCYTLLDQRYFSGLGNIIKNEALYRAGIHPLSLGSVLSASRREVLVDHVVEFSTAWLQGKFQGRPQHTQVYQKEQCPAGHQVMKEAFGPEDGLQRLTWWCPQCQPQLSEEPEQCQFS
Description: Inhibition of NEIL2 by quantifying inhibition of NEIL2-mediated cleavage and dissociation of quenched duplex DNA oligonucleotides, measured as fluorescence at 594 nm.

[9] = target: Uracil-DNA glycosylase (Homo sapiens) (UniProt P13051); settings: Hit No;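 further: UNG excision on a quenched double-stranded DNA oligo probe, with APE1 added for strand incision and turnover, read as fluorescence at 594 nm as strands separate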
Sequence of Uracil-DNA glycosylase (Homo sapiens) (P13051 whole entry, the tested form may be a part): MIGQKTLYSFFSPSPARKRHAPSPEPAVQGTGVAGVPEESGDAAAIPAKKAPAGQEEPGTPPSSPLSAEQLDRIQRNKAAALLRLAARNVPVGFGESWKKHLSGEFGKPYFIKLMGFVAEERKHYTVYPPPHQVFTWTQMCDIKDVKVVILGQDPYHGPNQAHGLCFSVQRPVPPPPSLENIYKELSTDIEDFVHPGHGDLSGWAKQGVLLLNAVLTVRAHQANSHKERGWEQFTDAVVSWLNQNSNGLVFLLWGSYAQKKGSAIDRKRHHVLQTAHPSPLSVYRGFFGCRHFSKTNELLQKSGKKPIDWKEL
Description: Inhibition of UNG by quantifying inhibition of UNG-mediated cleavage and dissociation of quenched duplex DNA oligonucleotides, measured as fluorescence at 594 nm. To generate a functional strand incision and increase turn-over this assay is coupled to APE1.

[10] = target: Methyl-CpG-binding domain protein 4 (Homo sapiens) (UniProt O95243); settings: Hit No;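 further: MBD4 activity read as fluorescence at 594 nm from cleavage and release of a quenched duplex DNA oligonucleotide, with APE1 coupled to incise the strand and raise turnover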
Sequence of Methyl-CpG-binding domain protein 4 (Homo sapiens) (O95243 whole entry, the tested form may be a part): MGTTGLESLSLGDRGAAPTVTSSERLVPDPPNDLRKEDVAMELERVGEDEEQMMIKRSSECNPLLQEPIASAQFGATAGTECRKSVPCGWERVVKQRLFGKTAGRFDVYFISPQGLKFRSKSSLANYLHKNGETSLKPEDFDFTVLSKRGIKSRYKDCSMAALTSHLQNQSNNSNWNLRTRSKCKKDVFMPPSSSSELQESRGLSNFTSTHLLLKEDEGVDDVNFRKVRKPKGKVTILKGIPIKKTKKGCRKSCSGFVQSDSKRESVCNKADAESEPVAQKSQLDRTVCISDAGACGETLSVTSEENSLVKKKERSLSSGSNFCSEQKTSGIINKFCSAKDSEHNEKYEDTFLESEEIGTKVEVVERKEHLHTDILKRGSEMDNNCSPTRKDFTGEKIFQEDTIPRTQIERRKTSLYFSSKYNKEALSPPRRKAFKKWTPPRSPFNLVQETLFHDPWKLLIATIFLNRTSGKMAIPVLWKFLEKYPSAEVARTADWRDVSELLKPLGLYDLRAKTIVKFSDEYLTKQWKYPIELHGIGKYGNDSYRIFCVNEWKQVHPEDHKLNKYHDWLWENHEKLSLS
Description: Inhibition of MBD4 by quantifying inhibition of MBD4-mediated cleavage and dissociation of quenched duplex DNA oligonucleotides, measured as fluorescence at 594 nm. To generate a functional strand incision and increase turn-over this assay is coupled to APE1.

[11] = Compound Concentration 1.0 uM, Hit No
[12] = Compound Concentration 10.0 uM, Hit No
[13] = Compound Concentration 10.0 uM, Hit Yes

SMILES | inhibition ([1]; Compound Concentration 10.0 uM) | inhibition [2, 12] | inhibition ([3]; Compound Concentration 10.0 uM) | inhibition ([4]; Compound Concentration 10.0 uM) | inhibition ([5]; Compound Concentration 10.0 uM) | inhibition [6, 12] | inhibition ([7]; Compound Concentration 10.0 uM) | inhibition ([9]; Compound Concentration 10.0 uM) | inhibition ([10]; Compound Concentration 10.0 uM) | inhibition ([8]; Compound Concentration 10.0 uM) | other results
CC(=O)Nc1cccc(-n2c(=O)n(C3CC3)c(=O)c3c(Nc4ccc(I)cc4F)n(C)c(=O)c(C)c32)c1 |  |  |  |  |  |  |  |  |  |  | inhibition ([1]; Compound Concentration 1.0 uM): -1.31%; inhibition [2, 11]: 8.25%; inhibition ([3]; Compound Concentration 1.0 uM): 2.25%; inhibition ([4]; Compound Concentration 1.0 uM): 18.1%; inhibition ([5]; Compound Concentration 1.0 uM): 15.8%; inhibition [6, 11]: 45.9%; inhibition ([7]; Compound Concentration 1.0 uM): 11.7%; inhibition ([8]; Compound Concentration 1.0 uM): 1.85%; inhibition ([9]; Compound Concentration 1.0 uM): 7.39%; inhibition ([10]; Compound Concentration 1.0 uM): 22.2%
COc1ccc2[nH]c(I)c(CCNC(C)=O)c2c1 | -1.91% | -3.69% | -5.77% | -7.64% | 10.2% | 3.33% | -6.47% | -9.84% | 8.97% |  | 
CCCCc1nc(Cl)c(CO)n1Cc1ccc(-c2ccccc2-c2nnn[nH]2)cc1 | 11.4% | -0.971% | -2.87% | -6.19% | 4.88% | 8.31% | -2.79% | -9.96% | 1.95% |  | 
COc1ccc2c(c1)C(C(=O)N(Cc1ccc(N(C)C)cc1)c1ccc(C(C)C)cc1)CCC2 (stereo not drawn) | 0.568% | 3.53% | 4.6% | -6.91% | 34.4% | 15.3% | 34.2% | -2.75% | 26.8% |  | 
CCCNS(=O)(=O)Nc1ncnc(OCCOc2ncc(Br)cn2)c1-c1ccc(Br)cc1 | 7.05% | 2.2% | -4.06% | -4.93% | 26.1% | 18.3% | 19% |  | 24.4% | 2.51% | 
Cc1cccc(C2CN(C)CCc3c2cc(O)c(O)c3Cl)c1 (stereo not drawn) | 7.17% | -8.27% | -4.88% | -3.57% | 33.4% | 27.7% | 15% | -2.8% | 26.4% |  | 
N=C(N)NC(=O)Cc1c(Cl)cccc1Cl | 20.2% | -0.992% | 10.8% | 3.31% | -4.2% | 3.06% | -0.939% |  | -6.99% | 12.5% | 
Cc1cc(C)cc(-c2cnc3cc(Cl)c(-c4cccc(O)c4)cc3c2OCCCN)c1 | -4.67% | -3.25% |  | 14.7% | -5.74% | 24.4% | 9.86% | -7.52% | 9.27% | 2.26% | 
CN[C@@H]1Cc2cccc3[nH]c(=O)n(c23)C1 | 21.2% | -6.94% | -2.21% | 0.551% | 46.8% | 15.8% | -1.72% | -3.54% | 11.7% |  | 
O=C(NCCNCC(O)COc1ccc(O)cc1)N1CCOCC1 (stereo not drawn) | 8% | -7.78% | 1.79% | -1.43% | -0.651% | 9.41% | -2.83% | -5.67% | 9.4% |  | 
COc1cccc([C@H](O)C2CCN(CCc3ccc(F)cc3)CC2)c1OC | 3.39% | -1.39% | -1.98% | 4.47% | -6.25% | 22.3% | -10% |  | 14.4% | -8.72% | 
N[C@@H](Cn1cc(F)c(=O)[nH]c1=O)C(=O)O | 0.568% | -9.73% | -2.06% | -7.64% | 6.98% | 12.4% | 0.976% | -5.2% | 3.94% |  | 
O=C(O)c1n[nH]c2c1C[C@H]1C[C@@H]21 | 21.7% | -1.41% | -0.352% and 3.65% | -5.22% | -6.12% | -5.48% | -4.72% |  | -4.32% | -1.48% and -4.98% | 
CC(C)[C@@H]1CC[C@@H](C)C[C@@H]1P(=O)(c1ccccc1)c1ccccc1 | 6.35% | -2.54% | -6.96% | -9.39% | 1.29% | -6.96% | -5.97% |  | 3.26% |  | 
COc1cc(N)c(Cl)cc1C(=O)NC1CN2CCC1CC2 (stereo not drawn) | 17.1% | 1% | -0.139% | -3.07% | 0.595% | -0.441% | -7.22% | -6.64% | -9.33% |  | 
CCCCC[C@H](O)/C=C/[C@H]1[C@H](O)CC(=O)[C@@H]1CCCCCCC(=O)O | 22.9% | -9.68% | 4.31% | -7.25% | -0.521% | 19.5% | 6.53% | -7.06% | 3.22% |  | 
Cc1nnn(-c2ccc(-c3ccc(C4(C(=O)O)CC4)cc3)cc2)c1NC(=O)O[C@H](C)c1ccccc1 | -7.6% | -1.41% | -1.39% | 4.91% | 17.2% | 20.7% | 13.9% |  | 34.4% | 4.01% | 
CC(C)(O)c1ccccc1CC[C@@H](SCC1(CC(=O)O)CC1)c1cccc(/C=C/c2ccc3ccc(Cl)cc3n2)c1 | 9.99% |  |  | 11.9% | 47.1% |  | 53.9% | 8.83% | 56.1% | 14% | inhibition [2, 13]: 61.2%; inhibition [6, 13]: 66.5%
CCCCCNC(=O)NS(=O)(=O)c1cc([N+](=O)[O-])ccc1NC1CCCCC1 | 14.4% | 8.51% | -1.39% | 13.9% | 30.5% | 23.6% | 19.1% |  | 22.7% | 14.5% | 
CSc1cc2c(cc1C(F)(F)F)N(C(=O)Nc1cccnc1)CC2 | 5.59% | -1.82% | 6.91% | 4.28% | -9.06% | 11.2% | -3.29% |  | -9.84% | 16.2% | 
CCCCC[C@H](O)/C=C/[C@@H]1[C@@H](C/C=C\CCCC(=O)O)[C@@H](O)C[C@H]1O | 7.79% |  | 7.21% | 8.11% | -4.2% | 25.5% | -6.92% | -8.4% | -2.06% | 0.515% | 
Cc1nnc2ccc(-c3cccc(C(F)(F)F)c3)nn12 | 22% |  | 1.34% | -2.84% | -2.78% | 5.5% | -6.43% | -4.72% | 9.3% | -0.86% | 
